# Assay results: paper PMC6018746, “Activation of the p53-MDM4 regulatory axis defines the anti-tumour response to PRMT5 inhibition through its role in regulating cellular splicing” (Scientific Reports, 2018)
# Like-named read-outs stand apart in the source and are kept apart here.
# Tested on: panel of 240 cancer cell lines
# Assay: 10-day growth/death assay (Eurofins panel)
# Type: cell-based
# Settings: Homo sapiens, read-out: gIC50
# Text: To further develop these molecules and to guide clinical strategy, it was necessary to understand sensitivity in preclinical models by assessing the anti-tumour activity of the PRMT5 inhibitors in various cancers. […] Lymphoma, including MCL and diffuse large B-cell lymphoma (DLBCL), breast, and multiple myeloma cell lines were among the most sensitive tumour types and had gIC50 values in the low nM range (Fig. 1B). […] Since lymphoma and breast cancer cell lines were among the most sensitive in the proliferation screens, subsequent mechanistic studies were performed in these tumour types.
compound,measurement,setting,value
O=C(NC[C@H](O)CN1CCc2ccccc2C1)c1ccnc(NC2CCC2)c1 [GSK3203591],IC50,"22Rv1, 22Rv1",2480 nM
same,IC50,639-V,342 nM
same,IC50,647-V,62 nM
same,IC50,769-P,203 nM
same,IC50,"786-0, 786-O",20.3 nM
same,IC50,5637.000,285 nM
same,IC50,A7,36.7 nM
same,IC50,A101D,190 nM
same,IC50,"A 172, A172",29.6 nM
same,IC50,"A204, A204",223 nM
same,IC50,"A498, A498",50.7 nM
same,IC50,"A549, A549",80.9 nM
same,IC50,"A673, A-673",119 nM
same,IC50,"A-375, A375",79.6 nM
same,IC50,"A-431, A431",549 nM
same,IC50,ACHN,38.6 nM
same,IC50,AGS,2030 nM
same,IC50,"AN3-CA, AN3 CA",254 nM
same,IC50,"ARH-77, ARH-77",44.4 nM
same,IC50,"ASPC1, AsPC-1",302 nM
same,IC50,"AU565, AU565",14.6 nM
same,IC50,"BC1, BC-1",69.6 nM
same,IC50,"BE(2)-C, BE(2)C",803 nM
same,IC50,"BFTC-905, BFTC-905",259 nM
same,IC50,"BPH-1, BPH1",718 nM
same,IC50,"BT-20, BT20",2280 nM
same,IC50,"BT-474, BT474",172 nM
same,IC50,"BT-549, BT-549",59.4 nM
same,IC50,"BV-173, BV-173",10.6 nM
same,IC50,"BXPC-3, BxPC-3",160 nM
same,IC50,BeWo,1090 nM
same,IC50,"C32, C32",14.1 nM
same,IC50,"C-4-II, C-4 II",266 nM
same,IC50,C-4I,139 nM
same,IC50,"C-33-A, C-33A",228 nM
same,IC50,"CAKI-1, Caki-1",68.8 nM
same,IC50,"CAKI-2, Caki-2",114 nM
same,IC50,"CAL-27, Cal 27",103 nM
same,IC50,"CAL-62, CAL-62",253 nM
same,IC50,"CAMA-1, CAMA-1",78.9 nM
same,IC50,"CAPAN-1, Capan-1",370 nM
same,IC50,"CCF-STTG1, CCF-STTG1",115 nM
same,IC50,"CCRF-CEM, CCRFCEM",3140 nM
same,IC50,"CEM/C1, CEM-C1",7.92 nM
same,IC50,"CFPAC-1, CFPAC-1",52.3 nM
same,IC50,"CGTH-W-1, CGTH-W-1",82.2 nM
same,IC50,"CHL-1, CHL-1",247 nM
same,IC50,"CHP-212, CHP-212",24 nM
same,IC50,"CML-T1, CML-T1",16.1 nM
same,IC50,"COLO 201, Colo 201",49.6 nM
same,IC50,"COLO 205, Colo 205",> 10000 nM
same,IC50,COLO 320DM,82.5 nM
same,IC50,"COLO-320-HSR, Colo 320 HSR",80.3 nM
same,IC50,"COLO-829, COLO 829",54.4 nM
same,IC50,"COR-L23, COR-L23",147 nM
same,IC50,"COR-L105, COR-L105",314 nM
same,IC50,"CRO-AP2, CRO-AP2",250 nM
same,IC50,"Calu-1, Calu1",3050 nM
same,IC50,"Caov-3, CaOV3",298 nM
same,IC50,"Capan-2, Capan-2",69.7 nM
same,IC50,"ChaGo-K-1, ChaGoK1",1190 nM
same,IC50,D283 Med,23.5 nM
same,IC50,DB,2.51 nM
same,IC50,DBTRG-05MG,156 nM
same,IC50,DK-MG,89.5 nM
same,IC50,"DLD-1, DLD-1",134 nM
same,IC50,"DMS-114, DMS114",1010 nM
same,IC50,"DOHH-2, DOHH-2",157 nM
same,IC50,Daoy,270 nM
same,IC50,Daudi,142 nM
same,IC50,"Detroit 562, Detroit 562",104 nM
same,IC50,"DoTc2-4510, DoTc2 4510",95.8 nM
same,IC50,"EB-3, EB-3",299 nM
same,IC50,"EFM-19, EFM-19",69.5 nM
same,IC50,"EM-2, EM-2",94 nM
same,IC50,"ES-2, ES-2",106 nM
same,IC50,FaDu,15.4 nM
same,IC50,"G-401, G-401",38.4 nM
same,IC50,"G-402, G-402",99.7 nM
same,IC50,H4,151 nM
same,IC50,"HCT-8, HCT-8",430 nM
same,IC50,"HCT-15, HCT-15",68.4 nM
same,IC50,"HCT-116, HCT-116",166 nM
same,IC50,HEC-1-A,2440 nM
same,IC50,"HEL 92.1.7, HEL-92-1-7",9.02 nM
same,IC50,HLE,174 nM
same,IC50,HLF,87.7 nM
same,IC50,HMCB,666 nM
same,IC50,HOS,223 nM
same,IC50,HPAF-II,154 nM
same,IC50,"HT1197, HT-1197",98.9 nM
same,IC50,"HT-3, HT-3",> 10000 nM
same,IC50,"HT-29, HT-29",95.2 nM
same,IC50,"HT-1080, HT-1080",53.5 nM
same,IC50,"HT-1376, HT1376",297 nM
same,IC50,HT,206 nM
same,IC50,"HUH-6-clone5, HUH-6 Clone 5",361 nM
same,IC50,HeLa,230 nM
same,IC50,"HepG2, HepG2",214 nM
same,IC50,Hs 294T,12.3 nM
same,IC50,Hs 695T,602 nM
same,IC50,"Hs746T, HS 746T",171 nM
same,IC50,Hs766T,1120 nM
same,IC50,"Hs-578T, Hs 578T",947 nM
same,IC50,"HuCCT-1, HuCCT1",225 nM
same,IC50,"HuP-T4, HuP-T4",84.9 nM
same,IC50,"J82, J82",83.1 nM
same,IC50,"J-RT3-T3-5, J-RT3-T3-5",43.2 nM
same,IC50,JAR,485 nM
same,IC50,"JEG-3, JEG-3",216 nM
same,IC50,Jurkat,130 nM
same,IC50,"K562, K562",146 nM
same,IC50,KATO III,16.7 nM
same,IC50,KHOS-240S,124 nM
same,IC50,KLE,> 10000 nM
same,IC50,"KPL-1, KPL-1",1330 nM
same,IC50,"L-428, L-428",330 nM
same,IC50,LNCaP,2930 nM
same,IC50,"LS174T, LS-174T",170 nM
same,IC50,MC-IXC,615 nM
same,IC50,"MCF7, MCF7",10.9 nM
same,IC50,"MDA-MB-231, MDA MB 231",56.7 nM
same,IC50,"MDA-MB-436, MDA-MB-436",49.7 nM
same,IC50,"MDA-MB-453, MDA MB 453",64.5 nM
same,IC50,"MDA-MB-468, MDA MB 468",4.83 nM
same,IC50,"MEG-01, MEG01",> 10000 nM
same,IC50,MES-SA,72 nM
same,IC50,"MG-63, MG-63",96 nM
same,IC50,"MHH-PREB-1, MHH-PREB-1",> 10000 nM
same,IC50,"MIA PaCa-2, Mia PaCa-2",158 nM
same,IC50,"MOLT-3, MOLT-3",217 nM
same,IC50,"MOLT-16, MOLT-16",54.2 nM
same,IC50,"MT-3, MT-3",46.4 nM
same,IC50,"MV4-11, MV-4-11",65.8 nM
same,IC50,"MX1, MX1",294 nM
same,IC50,"Malme-3M, MALME3M",265 nM
same,IC50,MeWo,249 nM
same,IC50,"NALM-6, NALM-6",110 nM
same,IC50,"NCI-H69, NCI-H69",144 nM
same,IC50,NCI-H295R,> 10000 nM
same,IC50,"NCI-H441, NCIH441",556 nM
same,IC50,"NCI-H446, NCIH446",570 nM
same,IC50,"NCI-H460, NCI-H460",224 nM
same,IC50,"NCI-H508, NCI-H508",307 nM
same,IC50,"NCI-H520, NCI-H520",15.6 nM
same,IC50,"NCI-H596, NCI-H596",188 nM
same,IC50,"NCI-H661, NCI-H661",152 nM
same,IC50,"NCI-H747, NCI-H747",2580 nM
same,IC50,"OCUG-1, OCUG-1",379 nM
same,IC50,"OE19, OE19",98 nM
same,IC50,"OE33, OE33",231 nM
same,IC50,"OVCAR-3, OVCAR3",51.4 nM
same,IC50,"PANC-1, PANC-1",165 nM
same,IC50,"PC-3, PC-3",873 nM
same,IC50,RD,639 nM
same,IC50,RKO,772 nM
same,IC50,"RKOAS451, RKO-AS45-1",113 nM
same,IC50,"RKOE6, RKOE6",210 nM
same,IC50,"RL95-2, RL95-2",218 nM
same,IC50,"RPMI-6666, RPMI 6666",748 nM
same,IC50,"RPMI-7951, RPMI-7951",44.2 nM
same,IC50,"RPMI-8226, RPMI 8226",58.4 nM
same,IC50,Raji,24.5 nM
same,IC50,"Ramos, Ramos (RA 1)",546 nM
same,IC50,"SAOS-2, SaOS2",48.2 nM
same,IC50,"SCC-4, SCC-4",286 nM
same,IC50,"SCC-9, SCC-9",747 nM
same,IC50,"SCC-25, SCC-25",273 nM
same,IC50,SCaBER,123 nM
same,IC50,"SH-4, SH-4",75.2 nM
same,IC50,"SJRH30, SJRH30",472 nM
same,IC50,"SK-BR-3, SK-BR-3",76.4 nM
same,IC50,"SK-LMS-1, SK-LMS-1",113 nM
same,IC50,"SK-MEL3, SK-MEL-3",181 nM
same,IC50,"SK-MEL-1, SK-MEL-1",38.7 nM
same,IC50,"SK-MEL-28, SK-MEL-28",239 nM
same,IC50,"SK-MES-1, SKMES1",807 nM
same,IC50,SK-N-AS,31.9 nM
same,IC50,SK-N-DZ,257 nM
same,IC50,SK-N-FI,308 nM
same,IC50,"SK-NEP-1, SK-NEP-1",264 nM
same,IC50,"SK-OV-3, SKOV3",52.6 nM
same,IC50,"SK-UT-1, SK-UT-1",42.1 nM
same,IC50,"SKO-007, SKO-007",84.4 nM
same,IC50,"SNB-19, SNB-19",223 nM
same,IC50,"SNU1, SNU-1",1040 nM
same,IC50,"SNU-16, SNU-16",34.4 nM
same,IC50,"SNU-423, SNU-423",66 nM
same,IC50,SR,275 nM
same,IC50,"ST486, ST486",101 nM
same,IC50,"SU.86.86, SU.86.86",934 nM
same,IC50,"SW13, SW-13",211 nM
same,IC50,"SW48, SW48",> 10000 nM
same,IC50,"SW480, SW480",413 nM
same,IC50,"SW579, SW579",83.3 nM
same,IC50,"SW684, SW684",1170 nM
same,IC50,"SW837, SW837",102 nM
same,IC50,"SW872, SW872",54 nM
same,IC50,"SW900, SW900",3250 nM
same,IC50,"SW948, SW948",120 nM
same,IC50,"SW 954, SW954",> 10000 nM
same,IC50,"SW1088, SW1088",40.5 nM
same,IC50,"SW1353, SW1353",129 nM
same,IC50,"SW1417, SW1417",773 nM
same,IC50,"SW1463, SW1463",770 nM
same,IC50,"SW1783, SW1783",389 nM
same,IC50,"SW-403, SW403",153 nM
same,IC50,"SW-620, SW620",5640 nM
same,IC50,SiHa,2510 nM
same,IC50,T47D,52.4 nM
same,IC50,T98G,27.3 nM
same,IC50,"T-24, T24",449 nM
same,IC50,"TCC-SUP, TCCSUP",235 nM
same,IC50,"THP-1, Thp1",80.5 nM
same,IC50,"U138-MG, U-138MG",43.3 nM
same,IC50,U266B1,78.5 nM
same,IC50,U-87 MG,67.6 nM
same,IC50,"UMUC3, UM-UC-3",105 nM
same,IC50,"WI-38, Wi38",18.5 nM
same,IC50,WiDr,505 nM
same,IC50,"Y79, Y79",113 nM
same,IC50,YAPC,168 nM
